Entries after “also recorded” stand apart in the source; their conditions may differ.
How the values were obtained:
[1] = system: differentiated human airway epithelia; assay type: cell-based; conditions: VSV-G pseudotyped HIV-based lentivirus
lung epithelial layer = assay: Fluorescent bead penetration of lung epithelium after EGTA instillation; assay type: in vivo, rat; conditions: 3 or 12 mM EGTA, 100 μl into left lobe, one hour
Protocol: (§1) Preliminary studies were performed in rats to test the feasibility of using hypotonic solutions with EGTA to increase transepithelial permeability in vivo. 3 wk old rats were tracheotomized and a small caliber PE catheter inserted into the left lobe of the lung. 100 μl of 3 or 12 mM EGTA in water or PBS was mixed with […] fluorescent beads (a marker for viral particles) and instilled into the lungs. One hour later the animals were sacrificed and lung, tissue sections examined under fluorescence microscopy to determine if the fluorescent beads penetrated the epithelial layer. In the PBS control animal, fluorescent particles were only noted in the airway lunen. […] It also was asked if animals treated with EGTA/H2O developed changes in lung morphology. Animals received PBS or 12, 60, or 120 mM EGTA/water into the left lobe of the lung and 1 wk later were sacrificed and H & E stained lung tissues examined.

lung = assay: Lung morphology (H & E) 1 wk after EGTA/water instillation; assay type: in vivo, rat
Protocol: as §1

[2] = system: differentiated human airway epithelial cells; assay type: cell-based
[3] = system: differentiated human airway epithelia; assay: Confocal (latex beads) and transmission electron microscopy of epithelial junctions after EGTA; assay type: cell-based; conditions: 1 hr
Protocol: Ten micromoles of CMFDA (5-chloromethylfluorescein diacetate; Molecular Probes, Eugene, Oreg.) were added to the basal medium overnight to label cells (Knecht and Shelden, 1995; Stewart and Deacon, 1995). 100 nm latex beads (1×10^9 particles, Sigma, St. Louis, Mo.) were mixed with 12 mM hypotonic EGTA solution at a 1:1 ratio. The suspension was applied to the apical surface of KGF-stimulated epithelia for 1 hr. The epithelia were then washed with PBS 4-5 times for 20 min and then fixed in 4% paraformaldehyde/PBS for 20 min. The cell filter membranes were removed, mounted on slides, and examined under a confocal microscope (MRC 1024, Bio-Rad).
Transmission electron microscopy was used to study cell morphology following treatment with a 6 mM EGTA in hypotonic buffer for 1 hr. Differentiated human airway epithelia were fixed in 2.5% glutaraldehyde (0.1 M sodium cacodylate buffer, pH 7.4) overnight at 4° C., and then post-fixed with 1% osmium tetroxide for 1 hr. Following serial alcohol dehydration, samples were embedded in Eponate 12 (Ted Pella, Inc., Redding, Calif.). Sectioning and post-staining were performed using routine methods (see “Electron Microscopy: Principles and Techniques for Biologists,” Jones and Bartlett Publishers, Sudbury, Mass., 1998). Samples were examined under a Hitachi H-7000 transmission electron microscope. […]

[4] = system: rabbit tracheal epithelium; assay: Tracheal transepithelial voltage (Vt) in anesthetized rabbits; assay type: in vivo
Protocol: Rabbit studies. The transepithelial electrical potential difference across the rabbit tracheal epithelium (Vt) was measured using a modification of previously described methods (Zabner et al., 1996). The reference electrode was a subcutaneous needle connected with sterile normal saline solution to a silver/silver chloride pellet. Adult New Zealand white rabbits (n=4/group) were anesthetized with 32 mg/kg ketamine, 5.1 mg/kg xylazine and 0.8 mg/kg acepromazine intramuscularly and placed with the head in the dependent position. An exploring electrode (pediatric size 8 Teflon-coated latex double lumen Foley catheter, modified Ruseh, Inc., Duluth, Ga.) was inserted into the tracheal lumen via a tracheotomy incision. One lumen of the catheter was filled with sterile normal saline solution and was connected to a silver/silver chloride pellet. Voltage was measured with a voltmeter connected to a strip chart recorder. The catheter was then left in that position for the entire recording period. The solutions were administered through the second lumen in the following order: 1) Normal saline for 5 min; 2) Sterile water with 10 mM EGTA for 10 min; 3) Normal saline with 10 mM EGTA for 5 min; and 4) Normal saline with 10 mM EGTA plus 100 μM amiloride for 5 min. Measurements of Vt were read by two investigators who were blinded to the treatment received. There wre no discrepancies in readings of greater than 2 mV between the investigators. Disruption of epithelial junctions was assessed by detecting a fall in […] Vt after perfusion with the chelator, and by the loss of amiloride-sensitive Vt after perfusion with the chelator solution.

[5] = system: polarized human bronchial epithelial cells; assay: Transepithelial resistance of polarized bronchial cultures after hypotonic EGTA; assay type: cell-based; conditions: 3 mM EGTA-H2O, 10 min, 37° C., immediate
Protocol: For the UV irradiation studies, Millicell inserts were put transiently into empty 100-mm tissue culture plates (apical side up) and exposed to 25 J/m^2 of UV light (254 nm). After irradiation, the Millicell inserts were quickly returned to plates containing Ultraser G culture medium on the basolateral side. Infections with rAAV were performed immediately following UV irradiation by application of 5×10^9 rAAV particles in 100 μl to either the apical or basolateral side of the support membrane as described above. Keratinocyte growth factor (KGF) treatment was performed at a final concentration of 100 ng/ml by addition to the basolateral culture medium for two sequential 24-hr incubations prior to AAV infection. Transient disruption of tight junctions was achieved by treating polarized cells with 3 mM EGTA in water for 10 min. After hypotonic EGTA treatment, cultures were washed twice with culture medium and infected with 5×10^9 rAAV particles in […] on either the apical or basolateral side of support membranes.
The transepithelial resistance of primary airway cultures was monitored with an ohm meter (EVOM; World Precision Instruments, Sarasota Fla.), as previously described (Wang et al., 1998). […] Electrodes were placed in both the mucosal and serosal compartments of the Millicell inserts and the resistance across the epithelia was recorded.

O=C(O)CN(CCOCCOCCN(CC(=O)O)CC(=O)O)CC(=O)O [EGTA]
gene transfer, apical surface of quiescent cells with EGTA/hypotonic buffer [1]: gene transfer was enhanced
penetration of 100 nM fluorescent beads into epithelial layer (lung epithelial layer): beads were seen throughout the cell layer and close to the basement membrane
lung morphology (lung; 120 mM EGTA): thickening of the interstitial space was noted
lung morphology (lung; 12 or 60 mM EGTA/water): morphology similar to the control
effect of EGTA solution alone on cell proliferation (BrdU histochemistry) [2]: had no effect on cell proliferation
width of intercellular gap (TEM) ([3]; 6 mM EGTA in hypotonic buffer): ~500 nm
intercellular spaces and deposition of 100 nm beads ([3]; hypotonic 6 mM EGTA, apical): caused a widening of the intercellular spaces and facilitated deposition of beads in the paracellular space
amiloride-sensitive Vt after hypotonic/EGTA treatment ([4]; 100 μM amiloride): there was no residual amiloride-sensitive Vt; also recorded: amiloride had no effect on Vt
tracheal Vt ([4]; hypotonic solution with 10 mM EGTA then saline with 10 mM EGTA): caused a significant fall in Vt
decrease in transepithelial resistance [5]: greater than 10 fold
